Laboratory results taken from patent publication US11534457B2, “Use of dextran sulfate” (priority 2017, dated 2022).

Experiments:
[1] = system: LPS system [PBMC and HUVEC+LPS (TLR4 ligand)]; assay: BioMAP LPS system; type: cell-based, Human
Text: (§1) In this study LMW-DS was characterized by profiling in the BioMAP® Diversity PLUS panel. The BioMAP® panel consists of human primary cell-based systems designed to model different aspects of the human body in an in vitro format. The 12 systems in the BioMAP® Diversity PLUS panel (Table 32) allow test agent characterization in an unbiased way across a broad set of systems modeling various human disease states. The BioMA®P systems are constructed with one or more primary cell types from healthy human donors, with stimuli, such as cytokines or growth factors, added to capture relevant signaling networks that naturally occur in human tissue or pathological conditions. […]
(§2) Systems are derived from either single cell types or co-culture systems. […] Test agents prepared in either DMSO (small molecules; final concentration 0.1%) or PBS (biologics) are added at the indicated concentrations 1-hr before stimulation, and remain in culture for 24-hrs or as otherwise indicated (48-hrs, MyoF system; 72-hrs, BT system (soluble readouts); 168-hrs, BT system (secreted IgG)). […] Soluble factors from supernatants are quantified using either HTRF® detection, bead-based multiplex immunoassay or capture ELISA. Overt adverse effects of test agents on cell proliferation and viability (cytotoxicity) are detected by sulforhodamine B (SRB) staining, for adherent cells, and alamarBlue® reduction for cells in suspension. […]

[2] = system: BF4T system [bronchial epithelial cells and HDFn+(TNFα and IL-4)]; assay: BioMAP BF4T system; type: cell-based, Human
Text: as §1, §2

Question: “low molecular weight dextran sulfate [LMW-DS]” was tested. Which Decreased biomarker activity [1] did it give?
Answer: The Decreased biomarker activity was “sTNFα”.

Question: What about the Increased biomarker activity [1] of the same substance?
Answer: The Increased biomarker activity was “IL-8”.

Question: And the Increased biomarker activity ([2]; BF4T system)?
Answer: Its Increased biomarker activity is “Eot3”.

Question: And the Eotaxin-3 ([2]; lower concentrations only)?
Answer: Its Eotaxin-3 is “Modestly increased”.
